Drawing on US9750759B2, “Antitumoral compounds” (priority 2008, dated 2017), this text covers GI50, CC50 and IC (total growth inhibition) for nine compounds.

What all share (assay): cells
Type in all cases: cell-based

Test [1] relates to HT29. As to conditions: Homo sapiens; for GI50: concentration that produces 50% growth inhibition; for IC (total growth inhibition): total growth inhibition (cytostatic effect), read-out: TGI. An excerpt:
(§1) The aim of this assay is to evaluate the in vitro cytostatic (ability to delay or arrest tumor cell growth) or cytotoxic (ability to kill tumor cells) activity of the samples being tested.
(§2) A colorimetric type of assay, using sulforhodamine B (SRB) reaction has been adapted for a quantitative measurement of cell growth and viability (following the technique described by Skehan P et al. J. Natl. Cancer Inst. 1990, 82, 1107-1112).
(§3) This form of assay employs SBS-standard 96-well cell culture microplates (Faircloth et al. Methods in cell science, 1988, 11(4), 201-205; Mosmann et al, Journal of Immunological. Methods, 1983, 65(1-2), 55-63). All the cell lines used in this study, derived from different types of human cancer, were obtained from the American Type Culture Collection (ATCC).
(§4) Cells were maintained in Dulbecco's Modified Eagle Medium (DMEM) supplemented with 10% Fetal Bovine Serum (FBS), 2 mM L-glutamine, 100 U/mL penicillin and 100 U/mL streptomycin at 37° C., 5% CO2 and 98% humidity. For the experiments, cells were harvested from subconfluent cultures using trypsinization and resuspended in fresh medium before counting and plating.
(§5) Cells were seeded in 96 well microtiter plates at 5×10^3 cells per well in aliquots of 150 μL, and allowed to attach to the plate surface for 18 hours in drug free medium. One control (untreated) plate of each cell line was fixed (as described below) and used for time zero reference value. Afterwards, test samples were added to the cultures in ten serial dilutions, in aliquots of 50 μL, ranging from 10 to 0.00262 μg/mL. After 48 hours exposure, the antitumor effect was estimated by the SRB method: Briefly, cells were washed twice with PBS, fixed for 15 min in 1% glutaraldehyde solution, rinsed twice in PBS, and stained in 0.4% SRB solution for 30 min at room temperature. Cells were then rinsed several times with 1% acetic acid solution and air-dried. SRB was then extracted in 10 mM trizma base solution and the absorbance measured in an automated spectrophotometric plate reader at 490 nm. Cell survival was expressed as percentage of control cell growth. The final effect of the sample being tested was estimated by applying the NCI algorithm (Boyd M R and Paull K D. Drug Dev. Res. 1995, 34, 91-104).
(§6) Using the mean±SD of triplicate cultures, a dose-response curve was automatically generated using nonlinear regression analysis. Three reference parameters were calculated (NCI algorithm) by automatic interpolation: GI50=concentration that produces 50% growth inhibition; TGI=total growth inhibition (cytostatic effect) and LC50=concentration that produces 50% net cell killing (cytotoxic effect).

The subject of test [2] is MDA-MB-231. As to conditions: Homo sapiens; for GI50: concentration that produces 50% growth inhibition; for IC (total growth inhibition): read-out: TGI.
Excerpt: as §1, §2, §3, §4, §5, §6

Test [3] relates to A549. As to conditions: Homo sapiens; for GI50: concentration that produces 50% growth inhibition; for IC (total growth inhibition): total growth inhibition (cytostatic effect), read-out: TGI.
Excerpt: as §1, §2, §3, §4, §5, §6

Setting [4] is: HT-29, HT29, 48 hours exposure, concentration that produces 50% net cell killing, read-out: LC50 (the source's name).
Setting [5] is: MDA-MB-231, 48 hours exposure, concentration that produces 50% net cell killing, read-out: LC50 (the source's name).
[6] abbreviates: MDA-MB-231, 48 hours exposure, total growth inhibition (cytostatic effect).
The mark [7] stands for this setting: A549, 48 hours exposure, concentration that produces 50% net cell killing, read-out: LC50 (the source's name).
Where [8] appears, read: MDA-MB-231, 48 h, read-out: LC50.

Read-outs that look alike come from different tables or passages of the source. Some results are limits rather than exact numbers.

By GI50 is commonly meant the concentration at which growth is held to half of that of the control. Take `C/C=C\C[C@@H](C/C=C\NC(=O)[C@@H](NC(=O)C#C/C=C\C(C)=C\[C@H](C)[C@@H]1CC=C(OC)C(=O)O1)C(C)(C)C)O[Si](c1ccccc1)(c1ccccc1)C(C)(C)C` [Compound 79]: the GI50 in test [1] (HT-29, HT29, 48 hours exposure) was 5100 nM; in test [2] (MDA-MB-231, 48 hours exposure), > 13100 nM; in test [3] (A549, 48 hours exposure) it was > 13100 nM. For the same compound, the CC50 in test [1] (setting [4]), in test [2] (setting [5]) and in test [3] (setting [7]) was > 13100 nM in each case. Moreover, the IC (total growth inhibition) in test [1] (HT-29, HT29, 48 hours exposure) is > 13.1 µM; in test [2] (setting [6]) it was > 13.1 µM; in test [3] (A549, 48 hours exposure), > 13.1 µM.

With `C/C=C\C[C@H](O)C/C=C\NC(=O)[C@@H](NC(=O)C#C/C=C\C(C)=C\[C@H](C)[C@@H]1CC=C(OC)C(=O)O1)C(C)(C)C` [Compound 80], the CC50 was > 19000 nM in test [1] (HT-29, 48 h, read-out: LC50); > 19000 nM in test [2] (setting [8]); > 19000 nM in test [3] (A549, 48 h, read-out: LC50). The GI50 was 49.4 nM in test [1] (HT-29, HT29, 48 hours exposure); 152 nM in test [2] (MDA-MB-231, 48 hours exposure); 93 nM in test [3] (A549, 48 hours exposure). For the same compound, the IC (total growth inhibition) was 0.0949 µM in test [1] (HT-29, HT29, 48 hours exposure); > 19 µM in test [2] (setting [6]); 0.304 µM in test [3] (A549, 48 hours exposure).

Consider `C/C=C\C[C@@H](C/C=C\NC(=O)[C@@H](NC(=O)C#C/C=C\C(C)=C\[C@H](C)[C@@H]1CC=C(OC)C(=O)O1)C(C)(C)C)OC(N)=O` [Compound 81], for which the CC50 in test [1] (HT-29, 48 h, read-out: LC50) is > 17600 nM; in test [2] (setting [8]) it was > 17600 nM; in test [3] (A549, 48 h, read-out: LC50), > 17600 nM. The GI50 in test [1] (HT-29, HT29, 48 hours exposure) was 1260 nM; in test [2] (MDA-MB-231, 48 hours exposure), 2980 nM; in test [3] (A549, 48 hours exposure), 2280 nM. Further, the IC (total growth inhibition) in test [1] (HT-29, HT29, 48 hours exposure) was 2.98 µM; in test [2] (MDA-MB-231, 48 h), > 17.6 µM; in test [3] (A549, 48 hours exposure), 8.43 µM.

In the case of `COC1=CC[C@@H]([C@@H](C)/C=C(C)/C=C\C=C/C(=O)N[C@H](C(=O)N/C=C\C[C@H](C/C=C(\C)Cl)OC(N)=O)C(C)(C)C)O[C@H]1O` [Compound 85], the CC50 in test [1] (HT-29, 48 h, read-out: LC50) was 1.97 nM; in test [2] (setting [8]), > 16.4 nM; in test [3] (A549, 48 h, read-out: LC50), > 16.4 nM. Besides, the GI50 amounted to 0.345 nM in test [1] (HT-29, HT29, 48 hours exposure); 1.02 nM in test [2] (MDA-MB-231, 48 hours exposure); 0.723 nM in test [3] (A549, 48 hours exposure). Besides, the IC (total growth inhibition) in test [1] (HT-29, HT29, 48 hours exposure) came to 0.000625 µM; in test [2] (setting [6]), 0.00181 µM; in test [3] (A549, 48 hours exposure), 0.00164 µM.

With `C/C=C\C[C@@H](C/C=C\NC(=O)[C@@H](NC(=O)\C=C/C=C\C(C)=C\[C@H](C)[C@@H]1CC=C(OC)[C@H](O)O1)C(C)(C)C)OC(N)=O` [Compound 89], the CC50 in test [1] (HT-29, 48 h, read-out: LC50) was 0.227 nM; in test [2] (setting [8]), > 1.74 nM; in test [3] (A549, 48 h, read-out: LC50), 0.819 nM. Further, the 50% growth inhibitory concentration (GI50) amounted to 0.0802 nM in test [1] (HT-29, HT29, 48 hours exposure); 0.296 nM in test [2] (MDA-MB-231, 48 hours exposure); 0.138 nM in test [3] (A549, 48 hours exposure). The IC (total growth inhibition) in test [1] (HT-29, HT29, 48 hours exposure) was 0.000127 µM; in test [2] (MDA-MB-231, 48 h), > 0.00174 µM; in test [3] (A549, 48 hours exposure), 0.000279 µM.

On to `C/C=C\C[C@H](O)C/C=C\NC(=O)[C@@H](NC(=O)/C=C\C#C/C(C)=C/[C@H](C)[C@@H]1CC=C(OC)C(=O)O1)C(C)(C)C` [Compound 96], for which the CC50 in test [1] (HT-29, 48 h, read-out: LC50) was > 19000 nM; in test [2] (setting [8]), > 19000 nM; in test [3] (A549, 48 h, read-out: LC50) it was > 19000 nM. In addition, the GI50 worked out at 5890 nM in test [1] (HT-29, HT29, 48 hours exposure); 13100 nM in test [2] (MDA-MB-231, 48 hours exposure); 7780 nM in test [3] (A549, 48 hours exposure). The IC (total growth inhibition) was 8.92 µM in test [1] (HT-29, HT29, 48 hours exposure); > 19 µM in test [2] (setting [6]); > 19 µM in test [3] (A549, 48 hours exposure).

`COC1=CC[C@@H]([C@@H](C)/C=C(C)/C=C\C#CCCC(=O)N[C@H](C(=O)N/C=C\C[C@H](C/C=C(\C)Cl)O[Si](c2ccccc2)(c2ccccc2)C(C)(C)C)C(C)(C)C)OC1=O` [Compound 98]: the GI50 in test [1] (HT-29, HT29, 48 hours exposure) was found to be 53.2 nM; in test [2] (MDA-MB-231, 48 hours exposure), 104 nM; in test [3] (A549, 48 hours exposure) it was 111 nM. Besides, the CC50 is 169 nM in test [1] (setting [4]), > 12100 nM in test [2] (setting [5]) and > 12100 nM in test [3] (setting [7]). The IC (total growth inhibition) in test [1] (HT-29, HT29, 48 hours exposure) worked out at 0.0701 µM; in test [2] (setting [6]) it was 0.181 µM; in test [3] (A549, 48 hours exposure), 0.495 µM.

Turning to `COC1=CC[C@@H]([C@@H](C)/C=C(C)/C=C\C#CCCC(=O)N[C@H](C(=O)N/C=C\C[C@@H](O)C/C=C(\C)Cl)C(C)(C)C)OC1=O` [Compound 99], the CC50 in test [1] (HT-29, 48 h, read-out: LC50) stood at 5770 nM; in test [2] (setting [8]), 13200 nM; in test [3] (A549, 48 h, read-out: LC50), 12200 nM. For the same compound, the 50% growth inhibitory concentration (GI50) in test [1] (HT-29, HT29, 48 hours exposure) was determined as 900 nM; in test [2] (MDA-MB-231, 48 hours exposure) it was 2720 nM; in test [3] (A549, 48 hours exposure) it was 3060 nM. For the same compound, the IC (total growth inhibition) in test [1] (HT-29, HT29, 48 hours exposure) was 2.21 µM; in test [2] (setting [6]), 6.11 µM; in test [3] (A549, 48 hours exposure), 6.62 µM.

Consider `COC1=CC[C@@H]([C@@H](C)/C=C(C)/C=C\C#CCCC(=O)N[C@H](C(=O)N/C=C\C[C@H](C/C=C(\C)Cl)OC(N)=O)C(C)(C)C)OC1=O` [Compound 100], for which the CC50 in test [1] (HT-29, 48 h, read-out: LC50) was 7590 nM; in test [2] (setting [8]), > 15800 nM; in test [3] (A549, 48 h, read-out: LC50), > 15800 nM. Besides, the concentration for 50% growth inhibition (GI50) in test [1] (HT-29, HT29, 48 hours exposure) was determined as 53.8 nM; in test [2] (MDA-MB-231, 48 hours exposure), 348 nM; in test [3] (A549, 48 hours exposure), 395 nM. The IC (total growth inhibition) in test [1] (HT-29, HT29, 48 hours exposure) is 0.301 µM; in test [2] (MDA-MB-231, 48 h) it was > 15.8 µM; in test [3] (A549, 48 hours exposure), 2.21 µM.
